Our source for the solubility in hexane and solubility in water values is patent publication US8632846B2, “Apparatus and methods for loading a drug eluting medical device” (Medtronic Vascular, Inc., priority 2010, dated 2014).

The series is described as follows: solubility of sirolimus in solvents / dispersion media. It counts as physicochemical. As to the method:
Solution 524 is a homogeneous mixture in which therapeutic substance 112 dissolves within a solvent or a solvent mixture. In one embodiment, solution 524 includes a high-capacity solvent 528 which is an organic solvent that has a high capacity to dissolve therapeutic substance 112. High capacity as utilized herein is defined as an ability to dissolve therapeutic substance 112 at concentrations greater than 500 mg of substance per milliliter of solvent. Examples of high capacity drug dissolving solvents for sirolimus and similar substances include but are not limited to tetrahydrofuran (THF), di-chloromethane (DCM), chloroform, and di-methyl-sulfoxide (DMSO). In addition to the high-capacity solvent, solution 524 may include an excipient 526 in order to assist in drug elution. In one embodiment, excipient 526 may be a surfactant such as but not limited to sorbitan fatty acid esters such as sorbitan monooleate and sorbitan monolaurate, polysorbates such as polysorbate 20, polysorbate 60, and polysorbate 80, cyclodextrins such as 2-hydroxypropyl-beta-cyclodextrin and 2,6-di-O-methyl-beta-cyclodextrin, sodium dodecyl sulfate, octyl glucoside, and low molecular weight poly(ethylene glycol)s. In another embodiment, excipient 526 may be a hydrophilic agent such as but not limited to salts such as sodium chloride and other materials such as urea, citric acid, and ascorbic acid. […]

Turning to `CO[C@H]1C[C@@H]2CC[C@@H](C)[C@@](O)(O2)C(=O)C(=O)N2CCCC[C@H]2C(=O)O[C@H]([C@H](C)C[C@@H]2CC[C@@H](O)[C@H](OC)C2)CC(=O)[C@H](C)/C=C(\C)[C@@H](O)[C@@H](OC)C(=O)[C@H](C)C[C@H](C)/C=C/C=C/C=C/1C` [sirolimus], the solubility in hexane result (hexane) is recorded as “insoluble”. The solubility in water entry (water) was “insoluble”.
